US8394929B2, “Nogo receptor-mediated blockade of axonal growth” (Yale University, priority 2000, dated 2013)
“Also recorded” adds a separate entry of the source. Read-outs that look alike come from different tables or passages of the source. One block for each molecule: values may come before it.

Assays:
[1] = biological target: chick E12 dorsal root ganglion neurons; assay: AP-Nogo binding to chick dorsal root ganglion neurons
Source text: (a) is a photograph of a gel and an immunoblot where the His-AP-Nogo (66 amino acid) protein was expressed in HEK293T cells, and purified from conditioned medium on a Nickel-containing resin via the His tag. Purified protein was subjected to SDS-PAGE and stained for total protein with CBB or immunoblotted with anti-Nogo antibodies (anti-Nogo). Molecular weight markers of 200, 116, 97, 65 and 45 kDa are shown at left, and the migration of AP-Nogo at right. (b) is a photograph of dissociated chick E12 dorsal root ganglion neurons that were incubated with 10 nM AP-Nogo or 10 nM AP-Nogo+160 nM GST-Nogo for sixty minutes at 23° C. The cells were washed, fixed and incubated at 60° C. in order to inactivate endogenous AP. Bound AP-Nogo was detected by incubation with nitro blue tetrazolium. Note the intense neuronal staining by AP-Nogo that is displaced by unlabeled ligand. (c) is a graph displaying experimental data where the potency of AP-Nogo and GST-Nogo in E12 chick dorsal root ganglion growth cone collapse assays was assessed as described in the Example section. The EC50 of AP-Nogo was determined to be 1 nM or less. The means±s.e.m. calculated from five to eight determinations are illustrated. (d) is a graph displaying experimental data where the binding of 10 nM AP-Nogo to chick E12 dorsal root ganglion neurons was assessed alone, or in the presence of 100 nM GST-Nogo or in the presence of 4 μM Pep2, which was quantified from experiments as in (b) by the method described in the Example section. The means±s.e.m. calculated from eight determinations are shown. (e) is a graph displaying experimental data where AP-Nogo binding to dorsal root ganglion neurons was measured as a function of AP-Nogo concentration. This is one of six experiments with similar results. (f) is a graph summarizing the data from (e) replotted for Scatchard analysis. The apparent Kd for AP-Nogo binding to E12 chick dorsal root ganglion neurons is 3 nM. […]

[2] = system: CNS myelin induced neurite outgrowth inhibition; assay: Blockade of CNS myelin induced neurite outgrowth inhibition in chick DRG neurons; assay type: cell-based
Experimental: To determine the antagonistic activity of Peptide 140 against CNS myelin, the above synthetic peptide was added approximately 10 min before application of CNS myelin. 30 min later, cultures were fixed and growth cone collapse was assessed following staining with rhodamine-phalloidin. For neurite outgrowth assays, plastic chamber slide were coated with 100 μg ml^−1 poly-L-lysine, washed, and dried. 3 μl drops of PBS containing CNS myelin were spotted and dried. Slides were then rinsed and coated with 10 μg ml fs24^−1 laminin before addition of dissociated E12 chick DRGs. Peptide 140, or the scrambled version of Peptide 140, was added at the time of cell plating. Cultures were grown for 5-7 h after which neurite outgrowth was assessed.
Although the role of the GPI anchor may be to regulate NgR cellular compartmentalization, another possible role for the GPI linkage is to provide a NgR cleavage site. Cleaving NgR could serve to affect hNogo-A (1055-1120) signaling by rendering a neuron insensitive to hNogo-A (1055-1120) and by releasing soluble NgR that could then act on adjacent cells to modulate hNogo-A (1055-1120) signaling. To determine if soluble mNgR modulates hNogo-A (1055-1120)-dependent inhibition, a soluble mNgR was generated by inserting a truncated cDNA encoding mNgR residues 1-348 in frame with a myc-His carboxy tag into pcDNA3.1. The resulting plasmid expressing mNgREcto was transfected into HEK293T cells, and conditioned media containing mNgREcto protein was collected. To test the effect of mNgREcto on Nogo signaling, E13 dissociated DRGs were plated in the presence of hNogo-A (1055-1120) or myelin. The inhibitors were presented in either soluble or substrate-bound forms. For neurite outgrowth assays on hNogo-A (1055-1120) or myelin substrates, Permanox chamber slides were coated with 100μ, fs24 g ml^−1 poly-L-Lysine, washed, and then 3-μl drops of phosphate-buffered saline (hereinafter “PBS”) containing 0, 10, 50, or 150 ng of GST-hNogo-A (1055-1120) or myelin were spotted and dried. GST-hNogo-A (1055-1120) and myelin were prepared as previously described (GrandPre et al., supra; Fournier et al., J. Cell Biol. 149:411-421, 2000). After three PBS washes, slides were coated with 10 μg ml^−1 laminin. Laminin was then aspirated and dissociated E13 chick DRG neurons were added. After 6-8 hr of outgrowth, cultures were fixed and neurite outgrowth lengths were assessed. For blockade experiments with NgREcto, spots were incubated with HEK293T cell conditioned media or NgREcto-transfected-HEK293T cell conditioned media following for 1 hr following the laminin coating step and before the addition of dissociated neurons. […] Thus, soluble fragments of NgR might serve physiologically or pharmacologically to reduce GST-hNogo-A (1055-1120) inhibition of axonal regeneration.

Molecule: Pep2-41: 2-41 fragment of the 66 amino acid region of Nogo, acetylated and amidated at the termini (Ac-RIYKGVIQAIQKSDEGHPFRAYLESEVAISEELVQKYSNS-NH2)
- Ki ([1]; binding of 10 nM AP-Nogo, read-out: apparent Ki in the binding assay): 150 nM
- blockade of CNS myelin induced neurite outgrowth inhibition (in words) [2]: can reverse the inhibition of neurite outgrowth
- blockade of CNS myelin induced neurite outgrowth inhibition (in words) ([2]; listed as 2-41 fragment): blocks

Molecule: Peptide 140: synthetic peptide of amino acids #1055-1094 of the human NogoA protein, acetylated and amidated at the termini (Ac-RIYKGVIQAIQKSDEGHPFRAYLESEVAISEELVQKYSNS-NH2; UniProt Q9NQC3 1055-1094, looked up, fragment)
- blockade of CNS myelin induced neurite outgrowth inhibition (in words) [2]: partial neutralization
- concentration at which maximal activity is obtained ([2]; bound CNS myelin): approximately 250 nM
- neurite outgrowth on a 20 ng spot of myelin (as compared with control outgrowth) ([2]; following treatment with Peptide 140, E12 chick DRG): 65%

Continued, in another order:

- blockade of AP-Nogo binding (in words) [1]: blocked; also recorded: displaced
B1: GST-Nogo: GST fusion protein of the 66 amino acid lumenal-extracellular fragment of Nogo-A, expressed in E. coli (protein)
chain: RIYKGVIQAIQKSDEGHPFRAYLESEVAISEELVQKYSNSALGHVNCTIKELRRLFLVDDLVDSLK
modifications: also: GST fusion protein
notes: GST fusion protein of the 66 amino acid lumenal-extracellular fragment of Nogo-A, expressed in E. coli

- reduction of binding of AP-Nogo-66 ([1]; 0.5 nM AP-Nogo-66, NgR-ecto conditioned medium, dorsal root ganglion neurons): 80%
B2: NgR-ecto: secreted fragment of amino acid residues 1-348 of the murine NgR, in HEK293T conditioned medium (protein)
chain: CPGACVCYNEPKVTTSCPQQGLQAVPTGIPASSQRIFLHGNRISHVPAASFQSCRNLTILWLHSNALARIDAAAFTGLTLLEQLDLSDNAQLHVVDPTTFHGLGHLHTLHLDRCGLRELGPGLFRGLAALQYLYLQDNNLQALPDNTFRDLGNLTHLFLHGNRIPSVPEHAFRGLHSLDRLLLHQNHVARVHPHAFRDLGRLMTLYLFANNLSMLPAEVLMPLRSLQYLRLNDNPWVCDCRARPLWAWLQKFRGSSSEVPCNLPQRLADRDLKRLAASDLEGCAVASGPFRPIQTSQLTDEELLSLPKCCQPDAADKASVLE
modifications: left off: small tags and cut ends
notes: secreted fragment of amino acid residues 1-348 of the murine NgR, in HEK293T conditioned medium
- blockade of CNS myelin induced neurite outgrowth inhibition (in words) [2]: blocks the ability of CNS myelin to inhibit axonal outgrowth
- blockade of CNS myelin induced neurite outgrowth inhibition (in words) ([2]; listed as NgR ectodomain protein): blocked
- blockade of CNS myelin induced neurite outgrowth inhibition (in words) ([2]; listed as NgREcto): partially reversed
- blockade of CNS myelin induced neurite outgrowth inhibition (in words) ([2]; listed as mNgR ectodomain protein): blocked
